In data set [1] the test system is renal proximal tubule epithelial (RPTEC) cells. As to the kind of experiment: Cell Titer Glow viability assay, RPTEC cells. To be noted: 48 hours. It counts as cell-based, human. On the procedure:
(§1) Considering the anticipated safety profile of a human plasma protein, toxicity of DFO and transferrins (majority Apo, majority Holo and mixtures) was assessed in primary human kidney cells. The renal proximal tubule epithelial (RPTEC) or cortical epithelial (HRCE) cells were treated with the indicated concentrations of majority ApoTf or DFO for 48 hours (FIG. 11A); and RPTEC or HRCE cells were treated for 72 hrs with 4 mg/mL of majority ApoTf, majority HoloTf, mixtures of transferrin (FIG. 11B). After 48 or 72 hours, cells were subjected to a Cell Titer Glow viability assay. Control cells, untreated cells, were set to a value of 100% viable. The average viability and standard deviations are shown for each treatment condition.
In general terms: ATP-based viability assays read luminescence as a measure of living cells.

The test system of data set [2] is cortical epithelial (HRCE) cells. Description: Cell Titer Glow viability assay, HRCE cells. The format is cell-based, human. Conditions: 48 hours. On the procedure:
as §1

The text below walks through data of patent publication USRE50230E1, “Method of treatment of hypoxia inducible factor (HIF)-related conditions” (GRIFOLS WORLDWIDE OPERATIONS LIMITED, priority 2014, dated 2024).

Regarding `CC(=O)N(O)CCCCCNC(=O)CCC(=O)N(O)CCCCCNC(=O)CCC(=O)N(O)CCCCCN` [DFO, deferoxamine, reference compound], the “toxicity (cell viability)” value in data set [1] and in data set [2] was “significant toxicity” throughout.
